One series has as its system AML-3. The experiment in a line: Cell growth inhibition (CellTiter-Glo), leukemia line AML-3. The class given is cell-based. To be noted: AML3; AML-3 leukemia cell line. The protocol: (§1) Cell growth inhibitory activity of representative BET bromodomain degraders in representative non-small cell lung cancer cell lines was determined using the CellTiter-Glo® Luminescent Cell Viability Assay. Cells were seeded in 384-well white opaque cell culture plates at a density of 2,000 cells/well with serially diluted compounds and incubated at 37° C. in an atmosphere of 95% air and 5% CO2 for 4 days. Cell viability was determined using the CellTiter-Glo® Luminescent Cell Viability Assay Kit (Promega, Madison, Wis.) according to the manufacture's instruction. Briefly, a volume of CellTiter-Glo® Reagent equal to the volume of cell culture medium was added to each well, and then the plates were incubated at room temperature for 10-20 minutes. The luminescent signal was measured using a Tecan Infinite M1000 multimode microplate reader (Tecan, Morrisville, N.C.). The half maximal inhibitory concentration (IC50) was calculated using the GraphPad Prism 5 software (GraphPad Software, La Jolla, Calif.). Cpd. A is a BET bromodomain inhibitor, see U.S. Appl. No. 62/121,637, having the following structure: Cell growth inhibitory activity of representative BET bromodomain degraders in representative leukemia cell lines, see Table 8, was determined as described in Example 17.

The nature of series [1]: Pharmacokinetics (PK) analysis in tumor bearing mice. It counts as in vivo. The protocol:
(§2) Cpd. […] A at 50 mg/kg, daily, oral dosing, 5 days a week for 3 weeks. Cpd. […] Neither Cpd. A nor Cpd. No. 4 caused significant weight loss (data not shown) or apparent toxicity in this model. […] No. 4 (10 mg/kg) reduced the levels of BET proteins by >80% at as early as 1 h and this effect lasted for at least 9 h in WHIM24 tumors (data not shown). […] No. 4 treatment (data not shown). […] No. 4 is reversible once the drug is cleared from the tumor tissue.

In series [2] the test system is MDA-MB-231 xenograft. The experiment in a line: In vivo antitumor activity in MDA-MB-231 xenograft model (Example 25). Set-up: species or system SCID mice. The protocol: For the in vivo efficacy experiments of this example, when tumors reached 80-200 mm^3, SCID mice were randomized into groups. Cpd. A, Cpd. No. 4, Cpd. No. 6, or vehicle control (10% PEG400: 3% Cremophor: 87% PBS, or 2% TPGS:98% PEG200) was given at the dose and duration indicated. Tumor sizes and animal weights were measured 2-3 times per week. Tumor volume (mm^3)=(length×width^2)/2. Tumor growth inhibition was calculated as TGI (%)=(Vc−Vt)/(Vc−Vo)*100, where Vc, Vt are the median of control and treated groups at the end of the study and Vo at the start. All the in vivo studies were performed under an animal protocol approved by the University Committee on Use and Care of Animals of the University of Michigan, in accordance with the recommendations in the Guide for the Care and Use of Laboratory Animals of the National Institutes of Health.
No. 4 was determined in xenograft tumor models of TNBC cell lines.

In a further series the test system is BET proteins. The experiment in a line: PD analysis of BET proteins in WHIM24 tumors. It counts as in vivo, mice. The settings on record: single IV dose 10 mg/kg. The procedure: as §2
The subject of another series is TNBC cell lines. The series is described as follows: Apoptosis induction in TNBC cell lines. The class given is cell-based. To be noted: triple-negative breast cancer (TNBC) cell lines (FIG. 12).
Another series deals with K61. The experiment in a line: Cell growth inhibition (CellTiter-Glo), leukemia line K61. The class given is cell-based. The procedure:
as §1

The next series has as its system Mono-Mac6. The series is described as follows: Cell growth inhibition (CellTiter-Glo), leukemia line Mono-Mac6. The settings on record: Homo sapiens, MONO-MAC-6. It counts as cell-based. The protocol: as §1
The next series concerns RS4; 11. The experiment in a line: Cell growth inhibition (CellTiter-Glo), leukemia line RS4; 11. It counts as cell-based. To be noted: Homo sapiens, 11 leukemia cell line. The procedure: as §1
The subject of the next series is MOLM16. The series is described as follows: Cell growth inhibition (CellTiter-Glo), leukemia line MOLM16. It counts as cell-based. The protocol: as §1
The subject of a further series is SKML. The series is described as follows: Cell growth inhibition (CellTiter-Glo), leukemia line SKML. It counts as cell-based. The protocol:
as §1

In another series the test system is MCL1 protein. The series is described as follows: PD analysis of MCL1 protein in WHIM24 tumors. To be noted: at as early as 3 h after treatment (data not shown). It counts as in vivo, mice. The protocol:
as §2

Series [3] concerns MDA-MB-231 xenograft. The series is described as follows: Efficacy of Cpd. No. 9 in MDA-MB-231 xenograft model. To be noted: MDA-MB-231 xenograft model in mice, i.v. (FIG. 7). The class given is in vivo, SCID mice. The protocol:
Cpd. No. 9 was dissolved in 10% PCP [10% PEG400 (Sigma)+3% Cremophor (Sigma)+87% PBS (Gibco)]. The pH of the drug solutions were checked before use and adjusted with 0.5N NaOH to be between pH 6.5 and 8.0 for IV (intravenous) administration.
Human breast tumor cells, MDA-MB-231 (ATCC®) were maintained at 37° C., 95% air, 5% carbon dioxide in Improved MEM (Richter's Mod.) supplemented with 10% Fetal Bovine Serum, 100 units/ml of penicillin and […] (GIBCO™, Invitrogen Corp.) and passaged twice weekly.
Tumor cells for xenografts were harvested with Trypsin (0.05%)-EDTA (0.53 mM) (GIBCO™, Invitrogen Corp.), growth medium added and cells placed on ice. Cells were washed once with 1×PBS (GIBCO™, Invitrogen Corp.) and re-suspended in PBS. After washing in PBS, cells were re-suspended in an ice cold mixture of 1:1 PBS and Matrigel (BD Biosciences, Invitrogen Corp.) for a final Matrigel protein concentration of 5 mg/ml. Cells at 5×10^6 cells in 0.1 ml were injected subcutaneously (s.c.) into the flank region of each mouse using a 25 gauge needle. […]
The size of tumors growing in the mice was measured in two dimensions using calipers. […] During treatment, tumor volume and body weight were measured three times a week. After the treatment was stopped, tumor volume and body weight was measured at least once a week. […]

Regarding `CCn1nc(C2CC2)cc1Nc1nc(C(=O)NCCCOCCOCCOCCCNc2cccc3c2C(=O)N(C2CCC(=O)NC2=O)C3=O)nc2[nH]c3cc(-c4c(C)noc4C)c(OC)cc3c12` (stereo not drawn) [Cpd. No. 4], the IC50 in the series on AML-3 is 400 nM; in the series with K61, 11800 nM; in the series on Mono-Mac6, 1400 nM; with RS4; 11, 50 nM; with MOLM16, 300 nM; in the series with SKML it was 200 nM. For the same molecule, in series [1] (MDA-MB-231 and MDA-MB-468 models (data not shown)), the “drug exposure in the xenograft tumor tissue” value is given as “limited drug exposure”. Further, the “drug exposure in the WHIM24 xenograft tumor tissue” value in [1] (WHIM24 model) is on record as “good drug exposure”. For the same molecule, the “drug concentrations in both plasma and tumors over time” value in series [1] (single dose 10 mg/kg, WHIM24 tumor bearing mice (data not shown)) is given as “diminished rapidly”. For the same molecule, the “drug exposure in plasma and WHIM24 tumors” value in series [1] (single dose 10 mg/kg, tumor bearing mice, at 1 and 3 h (data not shown)) is recorded as “reasonable drug exposure”. In the series on MDA-MB-231 xenograft [2] (MDA-MB-231 model, 10 mg/kg, IV, 3 times per week for 2-3 weeks (FIG. 10)), the antitumor activity result is listed as “limited or no antitumor activity”. In the series with MDA-MB-231 xenograft [2] (MDA-MB-231 xenograft model in mice (FIG. 10)), the tumor growth entry is “reduce tumor growth”. In addition, the “time at which protein levels of BRD2, BRD4 and MCL1 started to rebound” value in the series with BET proteins (WHIM24 tumors) amounted to 12 h. Also, the “duration of the reduction of BET proteins in WHIM24 tumors” value with BET proteins is on record as “at least 9 h”. Also, the “reduction of the levels of BET proteins in WHIM24 tumors” value with BET proteins (at as early as 1 h (data not shown)) is listed as > 80%. Besides, the apoptosis induction entry in the series on TNBC cell lines is reported as “induces stronger apoptosis than Cpd. A”. Besides, in the series with MCL1 protein, the “MCL1 protein levels in tumors” value is on record as “markedly reduced”.

Turning to `CCn1nc(C2CC2)cc1Nc1nc(C(=O)NCCCCNc2cccc3c2C(=O)N(C2CCC(=O)NC2=O)C3=O)nc2[nH]c3cc(-c4c(C)noc4C)c(OC)cc3c12` (stereo not drawn) [Cpd. No. 9], in the series on MDA-MB-231 xenograft [3], the tumor growth entry is listed as “reduces tumor growth”.

The values are drawn from US10633386B2, “BET protein degraders” (THE REGENTS OF THE UNIVERSITY OF MICHIGAN, priority 2016, dated 2020).
